Source: patent EP2108954A1, “A test system for detecting intracellular cyclic nucleotide level and methods and uses thereof” (Max-Planck-Gesellschaft zur Förderung der Wissenschaften …, priority 2008, dated 2009)
Entries after “also recorded” stand apart in the source; their conditions may differ.

What was measured:
hKCNQ4 = test: Gq coupling test: KCNQ4 current in HEK293 cells coexpressing Or22a, Or83b and hKCNQ4; type: cell-based, human; conditions: increasing Etb concentrations; +40 mV
Description: (§1) HEK293 cells were cultured as described by Wicher and colleagues (Wicher et al., J. Biol. Chem. 281, 3227-36 (2006)). In brief, HEK293 cells were cultured at a density of ∼2*10^4 per 35-mm dish and transfected with 1 µg pcDNA3-DOR22a-GFP and 1 µg pcDNA3-DOR83b-GFP (Neuhaus, et al., Nat. Neurosci. 8, 15-17 (2005); DNAs were a generous gift of Dr. E. Neuhaus and Dr. H. Hatt) using Roti-Fect transfection kit (Roth, Karlsruhe, Germany). In some experiments we transfected cells with pcDNA3-DOR22a-GFP or pcDNA3-DOR83b-GFP alone. We also examined the properties of DOR47a, which was cloned, using standard molecular biology methods into a pcDNA3.1(-) expression vector. To test for putative G-protein coupling, cells were transfected with the respective OR-DNA together with 1.5 µg hHCN2/pcDNA3 (provided by M. Biel, Munich, Germany), with 1 µg hKCNQ4/pcDNA3.1 or with 1 µg hCNGA2/pCMV6-XL4 (Origene, Rockville, MD, USA).
Ion currents in HEK293 cells were measured with the patch-clamp technology as described (Wicher et al, J. Biol. Chem. 281, 3227-36 (2006)). In brief, ion currents in HEK293 cells were measured at room temperature using whole-cell patch-clamp with appropriate compensation of series resistance and of capacitive currents. Additional experiments were performed in the outside-out configuration. […]

hCNGA2 = test: Gs coupling test: hCNGA2 whole-cell current in HEK293 cells; type: cell-based, human
Description: as §1
(§2) Ion currents in HEK293 cells were measured with the patch-clamp technology as described (Wicher et al, J. Biol. Chem. 281, 3227-36 (2006)). In brief, ion currents in HEK293 cells were measured at room temperature using whole-cell patch-clamp with appropriate compensation of series resistance and of capacitive currents. Additional experiments were performed in the outside-out configuration. Current measurements and data acquisition were performed using an EPC9 patch-clamp amplifier controlled by PatchMaster software (both HEKA Elektronik, Lambrecht, Germany). Patch-clamp pipettes were fabricated from borosilicate capillaries. Pipettes for whole-cell recordings had resistances of 2-4 MΩ for excised-patch recordings the pipette resistance was up to 15 MΩ.

Or22a and Or83b = target: T1, Or22a and Or83b (Drosophila melanogaster, UniProt P81909+Q9VNB5); test: Radioreceptor assay of cAMP content of HEK293 cells expressing Or22a and Or83b; type: cell-based; conditions: 100 nM Etb for 15 min; n = 3 experiments; control 1.28 ± 0.06
T1 construct: expressed in transfected cells; host or cells: HEK293
T1 sequence (P81909 1-397): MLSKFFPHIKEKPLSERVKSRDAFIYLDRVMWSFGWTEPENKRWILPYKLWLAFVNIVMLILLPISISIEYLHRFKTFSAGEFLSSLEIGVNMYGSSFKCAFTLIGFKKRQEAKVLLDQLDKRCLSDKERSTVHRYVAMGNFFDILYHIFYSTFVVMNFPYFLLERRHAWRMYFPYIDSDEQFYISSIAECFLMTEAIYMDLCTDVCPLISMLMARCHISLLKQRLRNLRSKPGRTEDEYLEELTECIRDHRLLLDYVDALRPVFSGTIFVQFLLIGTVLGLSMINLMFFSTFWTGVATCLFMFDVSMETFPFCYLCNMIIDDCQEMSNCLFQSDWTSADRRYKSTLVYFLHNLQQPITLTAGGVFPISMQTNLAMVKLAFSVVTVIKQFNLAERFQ
T1 sequence (Q9VNB5 1-486): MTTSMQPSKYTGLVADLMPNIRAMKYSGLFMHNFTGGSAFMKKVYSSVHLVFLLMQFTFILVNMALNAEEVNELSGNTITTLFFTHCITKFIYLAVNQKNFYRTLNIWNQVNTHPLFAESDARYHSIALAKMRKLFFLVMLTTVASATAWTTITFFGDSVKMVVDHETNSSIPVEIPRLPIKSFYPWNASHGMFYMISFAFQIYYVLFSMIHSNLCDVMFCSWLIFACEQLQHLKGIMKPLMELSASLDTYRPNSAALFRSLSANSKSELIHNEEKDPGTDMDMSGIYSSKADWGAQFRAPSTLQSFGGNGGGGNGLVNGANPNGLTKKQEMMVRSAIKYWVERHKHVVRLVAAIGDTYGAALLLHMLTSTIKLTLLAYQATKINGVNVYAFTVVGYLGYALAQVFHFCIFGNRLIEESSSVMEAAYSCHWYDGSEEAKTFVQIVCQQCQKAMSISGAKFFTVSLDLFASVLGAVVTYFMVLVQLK
Description: Monolayers of HEK293 cells were incubated for 30 min in HEPES Ringer's buffer containing 1 mM isobutylmethylxanthine and stimulated with 100 nM Etb for 15 min. The reaction was stopped with 96% ethanol, and after evaporation, 50 mM Tris/4 mM EDTA (pH 7.5) was added.

Or83b = target: T2, Or83b (Drosophila melanogaster, UniProt Q9VNB5); test: Whole-cell patch-clamp of HEK293 cells expressing Or83b alone; type: cell-based; set-up: expressed in transfected cells; host or cells: HEK293; conditions: HEK293 cells transfected with Or83b alone; whole-cell, -60 mV; n = 6
T2 sequence (Q9VNB5 1-486): T1 sequence (Q9VNB5 1-486)
Description: In some experiments we transfected cells with pcDNA3-DOR22a-GFP or pcDNA3-DOR83b-GFP alone. We also examined the properties of DOR47a, which was cloned, using standard molecular biology methods into a pcDNA3.1(-) expression vector. To test for putative G-protein coupling, cells were transfected with the respective OR-DNA together with 1.5 µg hHCN2/pcDNA3 (provided by M. Biel, Munich, Germany), with 1 µg hKCNQ4/pcDNA3.1 or with 1 µg hCNGA2/pCMV6-XL4 (Origene, Rockville, MD, USA).
as §2, with “In” for “Ion currents in HEK293 cells were measured with the patch-clamp technology as described (Wicher et al, J. Biol. Chem. 281, 3227-36 (2006)). In”
To differentiate between ionotropic and metabotropic pathways of receptor activation (Fig. 2a-d) the pipette solution contained either 2 mM ATP plus 2 mM GTP or 2 mM ADP plus 2 mM GDP (both for whole-cell and outside-out configuration). For the preparation of Cl^--free solutions the chloride salts were substituted by gluconate salts. The pipette Cs^+ solution contained (in mM) 140 CsCl, 1 Mg-ATP, 10 EGTA, 10 HEPES (pH = 7.3), and the Cs^+ bath solution contained (in mM) 140 CsCl, 15 glucose, 15 HEPES (pH = 7.4). The Ca^2+-free bath solution contained (in mM) 140 NaCl, 15 glucose, 15 HEPES, and the Na^+-free bath solution contained (in mM) 140 NMDG-Cl, 10 CaCl2, 10 glucose, 15 HEPES.
With the exception of GDP-γ-S, which was applied via the patch pipette, all substances were applied to the bath using either a bath perfusion system (BPS4 from ALA, New York, USA) or a rapid solution changer (RSC160 from Biologic, Claix, France) which were controlled by the PatchMaster software (HEKA Elektronik).

CCCC(=O)OCC [Etb, ethyl butyrate]
effect on KCNQ4 current (hKCNQ4): remains unaffected; also recorded: had no effect
effect on CNGA2 current (hCNGA2; cells expressing Or22a plus Or83b or Or22a alone): concentration-dependent rise in CNGA2 current
Hill coefficient of Etb-induced currents (hCNGA2; cells expressing hCNGA2 and Or22a, -80 mV, n = 5): 0.54
EC50 (hCNGA2; cells expressing hCNGA2 and Or22a, -80 mV, normalized to controls, n = 5, read-out: EC50 of Etb-induced currents): 3 nM
response of hCNGA2 current (hCNGA2; cells solely expressing CNGA2, Etb 100 nM, forskolin 10 µM, -80 mV): did not respond
cAMP level (Or22a and Or83b): 1.65 ± 0.10 pmol/mg protein
inward current upon short Etb application (Or83b): no current was observed
